# Test results as given in patent publication US20250320228A1, “PYRIDO[3,2-D]PYRIMIDINES AS HPK1 INHIBITORS” (Merck Patent GmbH, priority 2022, published 2025).
# Where two headings read alike, the source gives them in different places.
# How the values were obtained:
# [1] = target: full-length human HPK1 (MAP4K1) (Homo sapiens (Human), UniProt Q92918); assay: HPK1 kinase assay (biochemical, ADP-Glo); conditions: read-out: HPK1 enzymatic IC50
# Source text: HPK1 kinase assay (Biochemical assay).
# A recombinant fusion protein consisting of full-length human HPK1 (MAP4K1) with an N-terminal Glutatione S-transferase (GST) tag was produced in insect cells Sf21 using the baculovirus expression system. GST-HPK1 protein was purified from cell lysates by glutathione Sepharose affinity chromatography. The assay is run in three continuous steps: 1) the HPK1 enzymatic kinase reaction, 2) an ATP depletion, and 3) the ADP detection, the steps 2 and 3 are performed with ADP-Glo™ Kinase Assay kit from Promega (V9101). Test compounds were prepared by 10-point serial dilution in dimethyl sulfoxide (DMSO) and 100 nL of each dilution was spotted onto a 384-well Optiplate (Perkin Elmer and Cat #6007299) by Labcyte Echo. 5 μL kinase reaction buffer (0.02% Brij-35, 2 mM DTT, 50 mM HEPES pH 7.5, MgCl2 10 mM, BSA 0.01% and β-glycerophosphate 12.5 mM) containing HPK1 (3.2 nM) enzyme was transferred to each well and incubated for 15 minutes at room temperature at 60% humidity. The enzymatic reaction was started by adding 5 μl of Start-Mix (10 μM ATP and 3.235 μM MBP). After 120 minutes, the reaction was stopped by adding 5 μL of ADP-Glo reagent (Promega, V9101) and incubating for 40 min. in the dark at 23° C. To determine the level of ADP, 10 μl ADP-Glo Detection solution was added and incubated for 1 hour at 23° C. in the dark. The plate was transferred to a Perkin Elmer EnVision (2104 Multilabel Reader) for luminescence detection and percent inhibition activity and IC50 value were determined using Genedata Screener.
# [2] = tested on: HPK1 pSLP76 (Ser376); assay: Cellular assay phospho-SLP-76 (Ser376); assay type: cell-based, human; conditions: read-out: HPK1 pSLP76 IC50
# Protocol: Cellular Assay—Phospho-SLP-76 (Ser376).
# Inhibition of HPK1 enzymatic activity in cells was determined by detection of SLP76 phosphorylation at Ser376 residue in lysate from Jurkat (human) and EL-4 (mouse) cells. Jurkat and EL-4 cells express both HPK1 and SLP76 naturally. All cells were cultured in RPMI 1640 media containing 10% heat inactivated fetal bovine serum (FBS) and 1× Penicillin-Streptomycin. In either Jurkat or El-4 assay, cells were pre-incubated with test compounds prior to T cell stimulation by respective αCD3/αCD28 Dynabeads™. For detection, plates were read on the Envision and percent inhibition and IC50 were determined by Smart fit in Genedata Analyzer.
# For Jurkat cells: 35 μL cell suspension were dispensed at a density of 30,000 cells/well in 384-well plates containing HBSS (Gibco, 14025076)+0.1% BSA). 10-point logarithmic serial dilution of test compounds in DMSO were prepared by a Hamilton automated liquid handling robot and 35 nL was transferred into each well by an Echo liquid handler. After 60 min. pre-incubation, the cells were stimulated by adding 5 μL human T activator αCD3/αCD28 Dynabeads™ (Gibco, 11132D) at 1.2×107 beads/ml for 15 minutes at 37° C. Detection of Ser376 phosphorylation status was accomplished by first adding 10 μL of 5× AlphaLISA lysis buffer (Perkin Elmer, ALSU-PSLP-A500) to each well of the cell plate using a Multidrop Combi (5840300), followed by 20 minutes shaking. 10 μL cell lysate from each treatment were then transferred to a white 384-well plate (Corning 3572) and incubated with AlphaLISA acceptor beads for one hour (AlphaLISA SureFire Ultra p-SLP76 (Ser376), Perkin Elmer, ALSU-PSLP-A500), and donor beads for additional 2 hours at room temperature in the dark. […]
# [3] = GST-HPK1 3.2 nM, 10 μM ATP, MBP substrate, ADP-Glo
# [4] = SLP76 Ser376 phosphorylation after αCD3/αCD28 stimulation, Jurkat (human) or EL-4 (mouse) cells, table does not say which
# full-length human HPK1 (MAP4K1), sequence (Q92918 whole entry): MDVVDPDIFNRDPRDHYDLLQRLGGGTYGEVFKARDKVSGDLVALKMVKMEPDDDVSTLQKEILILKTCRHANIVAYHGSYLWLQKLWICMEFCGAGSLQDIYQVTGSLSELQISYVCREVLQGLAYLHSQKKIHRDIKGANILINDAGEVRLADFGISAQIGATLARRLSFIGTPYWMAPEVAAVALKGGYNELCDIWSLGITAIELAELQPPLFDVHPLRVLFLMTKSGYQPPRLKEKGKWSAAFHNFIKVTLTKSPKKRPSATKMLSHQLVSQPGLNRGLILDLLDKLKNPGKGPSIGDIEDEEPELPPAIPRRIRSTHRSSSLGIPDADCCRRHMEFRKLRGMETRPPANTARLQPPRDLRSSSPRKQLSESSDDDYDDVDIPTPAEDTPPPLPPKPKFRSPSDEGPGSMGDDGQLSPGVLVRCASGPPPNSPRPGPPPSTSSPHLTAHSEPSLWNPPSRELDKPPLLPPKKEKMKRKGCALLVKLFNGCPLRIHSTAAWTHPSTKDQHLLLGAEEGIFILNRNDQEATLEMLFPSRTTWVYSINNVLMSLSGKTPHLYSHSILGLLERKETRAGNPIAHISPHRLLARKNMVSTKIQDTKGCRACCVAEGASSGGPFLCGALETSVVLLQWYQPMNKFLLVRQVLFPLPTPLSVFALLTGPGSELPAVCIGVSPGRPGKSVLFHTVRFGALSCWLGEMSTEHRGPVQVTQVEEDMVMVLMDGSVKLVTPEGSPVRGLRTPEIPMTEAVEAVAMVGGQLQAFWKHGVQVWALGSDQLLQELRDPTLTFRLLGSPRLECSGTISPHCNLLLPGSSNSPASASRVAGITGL
Structure (SMILES),"IC50 [1, 3]","IC50 [2, 4]",IC50 [1],"IC50 ([2]; Homo sapiens, Jurkat)"
"NC(=O)c1cc(-c2cc(F)c(OCC3(O)CCOCC3)c(F)c2)nc2c(N[C@H]3CCCNC3)ncnc12 [Example 43, (S)-6-(3,5-difluoro-4-((4-hydroxytetrahydro-2H-pyran-4-yl)methoxy)phenyl)-4-(piperidin-3-ylamino)pyrido[3,2-d]pyrimidine-8-carboxamide]",< 0.1 µM,< 0.5 µM,,
"NC(=O)c1cc(-c2ccc(CC3(F)CCOCC3)cc2)nc2c(N[C@H]3CCCNC3)ncnc12 [Example 44, (S)-6-(4-((4-fluorotetrahydro-2H-pyran-4-yl)methyl)phenyl)-4-(piperidin-3-ylamino)pyrido[3,2-d]pyrimidine-8-carboxamide]",< 0.1 µM,< 0.5 µM,,
"CC(C)(O)C(F)(F)Oc1ccc(-c2cc(C(N)=O)c3ncnc(N[C@H]4CCCNC4)c3n2)cc1 [Example 47, (S)-6-(4-(1,1-difluoro-2-hydroxy-2-methylpropoxy)phenyl)-4-(piperidin-3-ylamino)pyrido[3,2-d]pyrimidine-8-carboxamide]",< 0.1 µM,0.5 to 1 µM,,
"NC(=O)c1cc(-c2ccc(O[C@H]3CN4CCC3CC4)cc2)nc2c(N[C@H]3CCCNC3)ncnc12 [Example 50, 4-(((S)-piperidin-3-yl)amino)-6-(4-(((R)-quinuclidin-3-yl)oxy)phenyl)pyrido[3,2-d]pyrimidine-8-carboxamide]",,,< 0.1 µM,> 1 µM
"C[C@@H](O)COc1ccc(-c2cc(C(N)=O)c3ncnc(N[C@H]4CCCNC4)c3n2)cc1 [Example 51, 6-(4-((R)-2-hydroxypropoxy)phenyl)-4-(((S)-piperidin-3-yl)amino)pyrido[3,2-d]pyrimidine-8-carboxamide]",,,< 0.1 µM,< 0.5 µM
"COC(C)(C)COc1ccc(-c2cc(C(N)=O)c3ncnc(N[C@H]4CCCNC4)c3n2)cc1 [Example 61, 6-[4-(2-methoxy-2-methylpropoxy)phenyl]-4-[(3S)-piperidin-3-ylamino]pyrido[3,2-d]pyrimidine-8-carboxamide]",< 0.1 µM,< 0.5 µM,,
"NC(=O)c1cc(-c2ccc(CN3CC4CC(C3)O4)cc2)nc2c(N[C@H]3CCCNC3)ncnc12 [Example 63, 6-(4-[6-oxa-3-azabicyclo [3.1.1]heptan-3-ylmethyl]phenyl)-4-[(3S)-piperidin-3-ylamino]pyrido[3,2-d]pyrimidine-8-carboxamide]",< 0.1 µM,< 0.5 µM,,
"NC(=O)c1cc(-c2ccc(CN3C4COCC3COC4)cc2)nc2c(N[C@H]3CCCNC3)ncnc12 [Example 64, 6-(4-[3,7-dioxa-9-azabicyclo [3.3.1]nonan-9-ylmethyl]phenyl)-4-[(3S)-piperidin-3-ylamino]pyrido[3,2-d]pyrimidine-8-carboxamide]",< 0.1 µM,< 0.5 µM,,
"NC(=O)c1cc(-c2ccc(CN3C4CCC3COC4)cc2)nc2c(N[C@H]3CCCNC3)ncnc12 [Example 66, 6-(4-[3-oxa-8-azabicyclo [3.2.1]octan-8-ylmethyl]phenyl)-4-[(3S)-piperidin-3-ylamino]pyrido[3,2-d]pyrimidine-8-carboxamide]",< 0.1 µM,< 0.5 µM,,
"NC(=O)c1cc(-c2ccc(CN3C4COCC3C4)cc2)nc2c(N[C@H]3CCCNC3)ncnc12 [Example 67, 6-(4-[3-oxa-6-azabicyclo [3.1.1]heptan-6-ylmethyl]phenyl)-4-[(3S)-piperidin-3-ylamino]pyrido[3,2-d]pyrimidine-8-carboxamide]",< 0.1 µM,> 1 µM,,

# The next lines start with results.
"IC50 [1, 3]","IC50 [2, 4]",Structure (SMILES),IC50 [1],"IC50 ([2]; Homo sapiens, Jurkat)"
< 0.1 µM,> 1 µM,"COCCOc1ccc(-c2cc(C(N)=O)c3ncnc(N[C@H]4CCCNC4)c3n2)c(C#N)c1 [Example 46, (S)-6-(2-cyano-4-(2-methoxyethoxy)phenyl)-4-(piperidin-3-ylamino)pyrido[3,2-d]pyrimidine-8-carboxamide]",,
< 0.1 µM,< 0.5 µM,"COCCOc1ccc(-c2cc(C(N)=O)c3ncnc(N[C@@H]4CNCC[C@H]4F)c3n2)cc1 [Example 48, 4-(((3R,4R)-4-fluoropiperidin-3-yl)amino)-6-(4-(2-methoxyethoxy)phenyl)pyrido[3,2-d]pyrimidine-8-carboxamide]",,
> 1 µM,> 1 µM,"COCCOc1ccc(-c2cc(C(N)=O)c3ncnc(N[C@H]4CNCC[C@@H]4F)c3n2)cc1 [Example 49, 4-(((3S,4S)-4-fluoropiperidin-3-yl)amino)-6-(4-(2-methoxyethoxy)phenyl)pyrido[3,2-d]pyrimidine-8-carboxamide]",,
< 0.1 µM,< 0.5 µM,"NC(=O)c1cc(-c2ccc(OCCCN3CCOCC3)cc2)nc2c(N[C@H]3CCCNC3)ncnc12 [Example 52, (S)-6-(4-(3-morpholinopropoxy)phenyl)-4-(piperidin-3-ylamino)pyrido[3,2-d]pyrimidine-8-carboxamide]",,
< 0.1 µM,> 1 µM,"CS(=O)(=O)Cc1ccc(-c2cc(C(N)=O)c3ncnc(N[C@H]4CCCNC4)c3n2)cc1 [Example 54, (S)-6-(4-((methylsulfonyl)methyl)phenyl)-4-(piperidin-3-ylamino)pyrido[3,2-d]pyrimidine-8-carboxamide]",,
< 0.1 µM,> 1 µM,"COCCOc1ccc(-c2cc(C(N)=O)c3ncnc(N[C@H]4CCCNC4)c3n2)cn1 [Example 55, (S)-6-(6-(2-methoxyethoxy)pyridin-3-yl)-4-(piperidin-3-ylamino)pyrido[3,2-d]pyrimidine-8-carboxamide]",,
< 0.1 µM,< 0.5 µM,"CC1(F)CN(Cc2ccc(-c3cc(C(N)=O)c4ncnc(N[C@H]5CCCNC5)c4n3)cc2)C1 [Example 56, (S)-6-(4-((3-fluoro-3-methylazetidin-1-yl)methyl)phenyl)-4-(piperidin-3-ylamino)pyrido[3,2-d]pyrimidine-8-carboxamide]",,
< 0.1 µM,< 0.5 µM,"NC(=O)c1cc(-c2ccc(CN3CCO[C@H](C(F)(F)F)C3)cc2)nc2c(N[C@H]3CCCNC3)ncnc12 [Example 57, 4-[(3S)-piperidin-3-ylamino]-6-(4-[[(2S)-2(trifluoromethyl)morpholin-4-yl]methyl]phenyl) pyrido [3,2-d]pyrimidine-8-carboxamide]",,
< 0.1 µM,< 0.5 µM,"NC(=O)c1cc(-c2ccc(C3(O)CC3)cc2)nc2c(N[C@H]3CCCNC3)ncnc12 [Example 58, 6-[4-(1-hydroxycyclopropyl)phenyl]-4-[(3S)-piperidin-3-ylamino]pyrido[3,2-d]pyrimidine-8-carboxamide]",,
< 0.1 µM,< 0.5 µM,"CN1CCN(c2ccc(-c3cc(C(N)=O)c4ncnc(N[C@H]5CCCNC5)c4n3)cn2)CC1 [Example 59, 6-[6-(4-methylpiperazin-1-yl)pyridin-3-yl]-4-[(3S)-piperidin-3-ylamino]pyrido[3,2-d]pyrimidine-8-carboxamide]",,
< 0.1 µM,< 0.5 µM,"CC(C)(O)COc1ccc(-c2cc(C(N)=O)c3ncnc(N[C@H]4CCCNC4)c3n2)cc1 [Example 62, 6-[4-(2-hydroxy-2-methylpropoxy)phenyl]-4-[(3S)-piperidin-3-ylamino]pyrido[3,2-d]pyrimidine-8-carboxamide]",,
< 0.1 µM,< 0.5 µM,"NC(=O)c1cc(-c2ccc(CN3CC4CCC(C3)O4)cc2)nc2c(N[C@H]3CCCNC3)ncnc12 [Example 65, 6-(4-[8-oxa-3-azabicyclo [3.2.1]octan-3-ylmethyl]phenyl)-4-[(3S)-piperidin-3-ylamino]pyrido[3,2-d]pyrimidine-8-carboxamide]",,
